For twelve compounds, LD50, MIC and ED50 results are on record in patent US4113944A, “Cephalosporin-type antibiotics and process for producing the same” (Meiji Seika Kaisha, Ltd., priority 1974, dated 1978).

Converted amounts (≈) assume the structure as drawn. Like-named read-outs stand apart in the source and are kept apart here.

The nature of data set [1]: acute toxicity in mice (LD50). To be noted: mouse, in vivo.
The test system of data set [2] is Escherichia coli. The data set is described as follows: Minimum Inhibitory Concentration (antimicrobial activity), Escherichia coli. It counts as cell-based.
In data set [3] the test system is Proteus vulgaris. The experiment in a line: Minimum Inhibitory Concentration (antimicrobial activity), Proteus vulgaris. It counts as cell-based. To be noted: read-out: Minimum Inhibitory Concentration (MIC).
Data set [4] deals with Salmonella. The experiment in a line: Minimum Inhibitory Concentration (antimicrobial activity), Salmonella. It counts as cell-based.
The subject of data set [5] is Salmonella typhi W-901-10. The experiment in a line: ED50 in mice suffering from infectious disease, Salmonella typhi W-901-10. It counts as in vivo. As to conditions: Salmonella enterica, iv. The procedure:
(§1) The ED50 values of the above obtained compounds were determined by intravenously administering the compounds to mice suffering from infectious diseases caused by various bacteria and were compared with those obtained using known antibiotics.

Data set [6] has as its system Proteus vulgaris C-73-9. The data set is described as follows: ED50 in mice suffering from infectious disease, Proteus vulgaris C-73-9. It counts as in vivo. The procedure: as §1
In data set [7] the test system is Salmonella enteritidis No.11. The data set is described as follows: ED50 in mice suffering from infectious disease, Salmonella enteritidis No.11. It counts as in vivo. To be noted: Salmonella enterica. The procedure:
as §1

Data set [8] relates to Staphylococcus aureus Smith S-424. The data set is described as follows: ED50 in mice suffering from infectious disease, Staphylococcus aureus Smith S-424. It counts as in vivo. The procedure: as §1
In data set [9] the test system is Staphylococcus aureaus. The experiment in a line: Minimum Inhibitory Concentration (antimicrobial activity), Staphylococcus aureus. It counts as cell-based.
The subject of data set [10] is Pseudomonas aeruginose. The experiment in a line: Minimum Inhibitory Concentration (antimicrobial activity), Pseudomonas. It counts as cell-based.
Data set [11] concerns Kurebusiera pneumonia. The data set is described as follows: Minimum Inhibitory Concentration (antimicrobial activity), Kurebusiera pneumonia. It counts as cell-based.
The mark [12] stands for this setting: C739, Proteus vulgaris C-73-9 (strains produced from Cephalosporinase), intravenous, mice, Example 1 as disodium salt, read-out: ED50.
Where [13] appears, read: Salmonella enteritidis No.11, intravenous, mice, Example 1 as disodium salt, read-out: ED50.
Where [14] appears, read: acute toxicity, mice, Example 1 as disodium salt, read-out: LD50.

Take `O=C(Cc1cccs1)N[C@@H]1C(=O)N2C(C(=O)[O-])=C(C[n+]3ccccc3)CS[C@H]12` [Cephaloridine]: in data set [1], the LD50 came out at 3840 mg/kg.
As to `O=C(O)Cc1nnc(SCC2=C(C(=O)O)N3C(=O)C(NC(=O)Cc4cccs4)[C@H]3SC2)[nH]1` (some centres unmarked) [Example 1, 7-(2-thienylacetamido)-3-(5-carboxymethyl-1,3,4-triazol-2-yl)thiomethyl-3-cephem-4-carboxylic acid], the MIC is 6.25 µg/mL (≈ 12.6 µM) in data set [2], 3.13 µg/mL (≈ 6.32 µM) in [3] and 0.78 µg/mL (≈ 1.57 µM) in data set [4]. Moreover, the 50% effective dose (ED50) in data set [5] turned out to be 52 mg/kg; in [6] (setting [12]), 7.3 mg/kg; in data set [7] (setting [13]) it was 27 mg/kg; in [8] (SMITHS424, Staphylococcus aureus Smith S-424, intravenous, mice, Example 1 as dipotassium salt, read-out: ED50), 8.5 mg/kg. In data set [1] (setting [14]), the LD50 was determined as 6300 mg/kg.
As to `O=C(O)CCc1nnc(SCC2=C(C(=O)O)N3C(=O)C(NC(=O)Cc4cccs4)[C@H]3SC2)[nH]1` (some centres unmarked) [Example 2, 7-(2-thienylacetamido)-3-[5-(2-carboxyethyl)-1,3,4-triazol-2-yl]thiomethyl-3-cephem-4-carboxylic acid], the MIC in data set [2] came out at 6.25 µg/mL (≈ 12.3 µM); in [3], 0.2 µg/mL (≈ 0.392 µM); in data set [4], 0.78 µg/mL (≈ 1.53 µM).
Turning to `Cn1c(CCC(=O)O)nnc1SCC1=C(C(=O)O)N2C(=O)C(NC(=O)Cc3cccs3)[C@H]2SC1` (some centres unmarked) [Example 3, 7-(2-thienylacetamido)-3-[5-(2-carboxyethyl)-1-methyl-1,3,4-triazol-2-yl]thiomethyl-3-cephem-4-carboxylic acid], the MIC in data set [2] worked out at 1.56 µg/mL (≈ 2.98 µM); in data set [3] it was 0.78 µg/mL (≈ 1.49 µM); in [4], 0.78 µg/mL (≈ 1.49 µM).
With `O=C(O)CCc1nnc(SCC2=C(C(=O)O)N3C(=O)C(NC(=O)Cc4cccs4)[C@H]3SC2)n1-c1ccccc1` (some centres unmarked) [Example 4, 7-(2-thienylacetamido)-3-[5-(2-carboxyethyl)-1-phenyl-1,3,4-triazol-2-yl]thiomethyl-3-cephem-4-carboxylic acid], the MIC in data set [2] turned out to be 25 µg/mL (≈ 42.7 µM); in data set [3], 1.56 µg/mL (≈ 2.66 µM); in [4], 25 µg/mL (≈ 42.7 µM).
For the compound `Cn1c(CC(=O)O)nnc1SCC1=C(C(=O)O)N2C(=O)C(NC(=O)Cc3cccs3)[C@H]2SC1` (some centres unmarked) [Example 5, 7-(2-thienylacetamido)-3-(5-carboxymethyl-1-methyl-1,3,4-triazol-2-yl)-thiomethyl-3-cephem-4-carboxylic acid], the MIC was 3.13 µg/mL (≈ 6.14 µM) in data set [2], 0.2 µg/mL (≈ 0.392 µM) in data set [3] and 0.78 µg/mL (≈ 1.53 µM) in data set [4].
For `O=C(Cc1cccs1)NC1C(=O)N2C(C(=O)O)=C(CSc3nnc(C(=O)O)[nH]3)CS[C@H]12` (some centres unmarked) [Example 6, 7-(2-thienylacetamido)-3-(5-carboxy-1,3,4-triazol-2-yl)thiomethyl-3-cephem-4-carboxylic acid], the MIC is 6.25 µg/mL (≈ 13 µM) in data set [2], 0.2 µg/mL (≈ 0.415 µM) in data set [3] and 3.13 µg/mL (≈ 6.5 µM) in data set [4].
On the same counts, the results for `Cn1c(SCC2=C(C(=O)O)N3C(=O)C(NC(=O)Cc4cccs4)C3SC2)nnc1C(=O)O` (centres unmarked) [Example 7, 7-(2-thienylacetamido)-3-(5-carboxy-1-methyl-1,3,4-triazol-5-yl)-thiomethyl-3-cephem-4-carboxylic acid] are 1.56 µg/mL (≈ 3.15 µM), 0.39 µg/mL (≈ 0.787 µM) and 0.78 µg/mL (≈ 1.57 µM).
`O=C(Cc1cccs1)NC1C(=O)N2C(C(=O)O)=C(CSc3nnc(C(=O)O)n3-c3ccccc3)CSC12` (centres unmarked) [Example 8, 7-(2-thienylacetamido)-3-(5-carboxy-1-phenyl-1,3,4-triazol-5-yl)thiomethyl-3-cephem-4-carboxylic acid]: the MIC in [2] came out at 25 µg/mL (≈ 44.8 µM); in [3], 0.78 µg/mL (≈ 1.4 µM); in [4], 12.5 µg/mL (≈ 22.4 µM).
Turning to `Cn1cnnc1SCC1=C(C(=O)O)N2C(=O)C(NC(=O)Cc3cccs3)C2SC1` (centres unmarked) [Example 22, 7-(2-thienylacetamide)-3-(1-methyl-1,3,4-triazol-5-yl)thiomethyl-3-cephem-4-carboxylic acid], the MIC was found to be 6.25 µg/mL (≈ 13.8 µM) in data set [2]; 50 µg/mL (≈ 111 µM) in [3]; 1.56 µg/mL (≈ 3.45 µM) in data set [4]; 0.78 µg/mL (≈ 1.73 µM) in data set [9]; 1.56 µg/mL (≈ 3.45 µM) in data set [10]; 0.78 µg/mL (≈ 1.73 µM) in [11].
For the compound `CC(=O)OCC1=C(C(=O)O)N2C(=O)[C@@H](NC(=O)Cc3cccs3)[C@H]2SC1` [Sodium Cephalotin, 7-(2-thienylacetamido)cephalosporanic acid, reference compound], the results for the MIC in data set [2], in data set [3] and in data set [4] were 6.25 µg/mL, 2.5 µg/mL and 3.13 µg/mL, respectively. For the same compound, the 50% effective dose (ED50) in [5] worked out at 200 mg/kg; in [6] (Proteus vulgaris, C739, iv) it was 14 mg/kg; in data set [7] (ENTERITIDIS, iv), 480 mg/kg; in data set [8] (Staphylococcus aureus, SMITHS424, iv) it was 19 mg/kg. Moreover, the 50% lethal dose (LD50) in [1] (setting [14]) worked out at 5180 mg/kg.
As for `Cc1nnc(SCC2=C(C(=O)O)N3C(=O)[C@@H](NC(=O)Cn4cnnn4)[C@H]3SC2)s1` [Sodium Cephazoline], the ED50 in data set [6] (setting [12]) turned out to be 18.5 mg/kg; in [7] (setting [13]), 130 mg/kg. For the same compound, in data set [1] (setting [14]), the LD50 turned out to be 3130 mg/kg.
